This passage reports EC50 results from patent publication US11149036B2, “3-(1H-pyrazol-4-yl)pyridine allosteric modulators of the M4 muscarinic acetylcholine receptor” (Merck Sharp & Dohme Corp., priority 2017, dated 2021).

The assay deals with T1, human M4 muscarinic acetylcholine receptor (Homo sapiens, UniProt P08173).
T1 construct: expressed in transfected cells; host or cells: CHO-K1
T1 sequence (P08173 1-479): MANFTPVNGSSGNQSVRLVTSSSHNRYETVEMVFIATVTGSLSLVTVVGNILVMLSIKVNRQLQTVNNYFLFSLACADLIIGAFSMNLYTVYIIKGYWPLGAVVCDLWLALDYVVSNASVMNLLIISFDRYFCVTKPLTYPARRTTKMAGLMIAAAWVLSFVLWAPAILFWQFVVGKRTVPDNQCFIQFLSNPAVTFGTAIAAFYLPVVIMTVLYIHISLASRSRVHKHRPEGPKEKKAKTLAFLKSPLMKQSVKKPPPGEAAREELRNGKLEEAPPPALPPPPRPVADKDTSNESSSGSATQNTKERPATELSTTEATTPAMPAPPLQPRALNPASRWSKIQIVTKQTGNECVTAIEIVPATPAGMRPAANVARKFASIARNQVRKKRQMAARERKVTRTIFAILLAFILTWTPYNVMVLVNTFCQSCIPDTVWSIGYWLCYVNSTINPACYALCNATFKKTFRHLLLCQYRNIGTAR
Briefly: human FLIPR-based M4 PAM assay (CHO-K1 cells with human M4 receptor and Gaqi5, calcium dye fluorescence). It counts as cell-based. To be noted: inflection point (IP) of dose response curve, acetylcholine added at 20% of maximum response, read-out: M4 FLIPPR Hu IP. The gist of the method: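 CHO-K1 cells stably expressing human M4 with chimeric Gaqi5, calcium-dye loaded ~1 h at 37° C; compound added at increasing concentrations 4 min before acetylcholine at an EC20 concentration (sometimes a further EC70 addition).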
`Cc1cc(-c2cnn(CC3(F)CCCC3)c2)c(-c2ccn3cnnc3c2)nc1Cl` [Example 118, 7-(6-chloro-3-(1-((1-fluorocyclopentyl)methyl)-1H-pyrazol-4-yl)-5-methylpyridin-2-yl)-[1,2,4]triazolo[4,3-a]pyridine]: the EC50 was 48 nM. For `COc1cc2ccc(-c3nc(Cl)c(C)cc3-c3cnn(CC4(C)CCCC4)c3)cc2nn1` [Example 119, 7-(6-chloro-5-methyl-3-(1-((1-methylcyclopentyl)methyl)-1H-pyrazol-4-yl)pyridin-2-yl)-3-methoxycinnoline], the EC50 was found to be 5 nM. As to `Cn1cnc2cc(-c3nc(C(F)F)ccc3-c3cnn(C[C@H]4CC[C@H](F)C4)c3)ccc21` [Example 120, 5-(6-(difluoromethyl)-3-(1-(((1S,3S)-3-fluorocyclopentyl)methyl)-1H-pyrazol-4-yl)pyridin-2-yl)-1-methyl-1H-benzo[d] imidazole], the EC50 stood at 44 nM. The result for `Cn1cnc2cc(-c3nc(C(F)F)ccc3-c3cnn(C[C@@H]4CC[C@@H](F)C4)c3)ccc21` [Example 121, 5-(6-(difluoromethyl)-3-(1-(((1R,3R)-3-fluorocyclopentyl)methyl)-1H-pyrazol-4-yl)pyridin-2-yl)-1-methyl-1H-benzo[d] imidazole] reads 50 nM. The result for `COc1cc2ccc(-c3nc(C(F)F)ccc3-c3cnn(C[C@@H]4CC[C@@H](F)C4)c3)cc2nn1` [Example 122, 7-(6-(difluoromethyl)-3-(1-(((1R,3R)-3-fluorocyclopentyl)methyl)-1H-pyrazol-4-yl)pyridin-2-yl)-3-methoxycinnoline] reads 59 nM.

For the compound `COc1cc2ccc(-c3nc(C(F)F)ccc3-c3cnn(C[C@H]4CC[C@H](F)C4)c3)cc2nn1` [Example 123, 7-(6-(difluoromethyl)-3-(1-(((1S,3S)-3-fluorocyclopentyl)methyl)-1H-pyrazol-4-yl)pyridin-2-yl)-3-methoxy-cinnoline], the EC50 stood at 63 nM. The same measure for `Cn1nnc2cc(-c3nc(C#N)ccc3-c3cnn(CC4(C)CCCC4)c3)ccc21` [Example 124, 6-(1-methyl-1H-benzo[d][1,2,3]triazol-5-yl)-5-(1-((1-methylcyclopentyl)methyl)-1H-pyrazol-4-yl)picolinonitrile]: 27 nM; for `Cn1nc2ccc(-c3nc(C#N)ccc3-c3cnn(CC4(C)CCCC4)c3)cc2n1` [Example 125, 6-(2-methyl-2H-benzo[d][1,2,3]triazol-5-yl)-5-(1-((1-methylcyclopentyl)methyl)-1H-pyrazol-4-yl)picolinonitrile]: 76 nM. The same measure for `CC1(Cn2cc(-c3ccc(C#N)nc3-c3ccc4ccc(Cl)nc4c3)cn2)CCCC1` [Example 126, 6-(2-chloro-quinolin-7-yl)-5-(1-((1-methylcyclo-pentyl)methyl)-1H-pyrazol-4-yl)picolinonitrile]: 78 nM. The result for `CC1(Cn2cc(-c3ccc(C#N)nc3-c3ccc4cc(Cl)nnc4c3)cn2)CCCC1` [Example 127, 6-(3-chlorocinnolin-7-yl)-5-(1-((1-methylcyclopentyl)methyl)-1H-pyrazol-4-yl)picolinonitrile] reads 26 nM. As to `CC1(Cn2cc(-c3ccc(C#N)nc3-c3ccc4cc(F)nnc4c3)cn2)CCCC1` [Example 128, 6-(3-fluorocinnolin-7-yl)-5-(1-((1-methylcyclopentyl)methyl)-1H-pyrazol-4-yl)picolinonitrile], the EC50 turned out to be 35 nM. In the case of `N#Cc1ccc(-c2cnn(CC3(F)CCCC3)c2)c(-c2ccn3cc(CF)nc3c2)n1` [Example 135, 5-(1-((1-fluorocyclopentyl)methyl)-1H-pyrazol-4-yl)-6-(2-(fluoromethyl)imidazo[1,2-a]pyridin-7-yl)picolinonitrile], the EC50 was 24 nM. For `CC1(Cn2cc(-c3cc(F)c(F)nc3-c3ccn4ccnc4c3)cn2)CCCC1` [Example 137, 7-(5,6-difluoro-3-(1-((1-methylcyclopentyl)methyl)-1H-pyrazol-4-yl)pyridin-2-yl)imidazo[1,2-a]pyridine], the EC50 was 21 nM.
